Results reported in patent US20070072897A1, “Phenylaminopropanol derivatives and methods of their use” (Wyeth, priority 2005, published 2007).
Structures can show the parent of a compound that is named as a salt.

Experiments:
human hNET = biological target: T1, human hNET (Homo sapiens, UniProt P23975); assay: Norepinephrine (NE) uptake assay in MDCK-Net6 cells; type: cell-based; conditions: [3H]NE uptake; for inhibition at 1 µM: MDCK-Net6 cells, read-out: hNET Percentage inhibition at 1 μM; for EC50: MDCK-Net6 cells stably transfected with hNET
T1 construct: expressed in transfected cells; host or cells: MDCK (MDCK-Net6)
T1 sequence (P23975 whole entry): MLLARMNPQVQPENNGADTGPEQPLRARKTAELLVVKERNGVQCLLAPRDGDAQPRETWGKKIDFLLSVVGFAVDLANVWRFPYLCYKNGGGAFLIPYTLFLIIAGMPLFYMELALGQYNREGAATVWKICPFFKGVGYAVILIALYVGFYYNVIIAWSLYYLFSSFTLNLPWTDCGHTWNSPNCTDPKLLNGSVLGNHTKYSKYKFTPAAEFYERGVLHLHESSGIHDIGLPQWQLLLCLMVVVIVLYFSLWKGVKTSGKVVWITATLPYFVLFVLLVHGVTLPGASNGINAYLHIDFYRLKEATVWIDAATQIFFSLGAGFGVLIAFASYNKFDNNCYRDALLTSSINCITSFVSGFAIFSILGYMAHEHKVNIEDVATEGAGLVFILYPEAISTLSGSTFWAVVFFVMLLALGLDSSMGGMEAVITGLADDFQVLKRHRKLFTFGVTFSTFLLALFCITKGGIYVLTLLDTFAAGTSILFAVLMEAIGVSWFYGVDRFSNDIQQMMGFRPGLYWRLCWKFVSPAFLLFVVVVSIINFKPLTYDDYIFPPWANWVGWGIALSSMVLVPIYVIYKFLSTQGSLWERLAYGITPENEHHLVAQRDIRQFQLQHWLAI

human 5-HT2A receptor = biological target: T2, human 5-HT2A receptor (Homo sapiens, UniProt P28223); assay: 5-HT2A FLIPR assay (calcium response to DOI) in CHO cells; type: cell-based; conditions: for inhibition at 1 µM: CHO, read-out: 5-HT2A Percentage inhibition at 1 μM; for IC50: antagonist inhibition of 3 nM DOI stimulation, CHO cells, FLIPR
T2 construct: expressed in transfected cells; host or cells: CHO
T2 sequence (P28223 whole entry): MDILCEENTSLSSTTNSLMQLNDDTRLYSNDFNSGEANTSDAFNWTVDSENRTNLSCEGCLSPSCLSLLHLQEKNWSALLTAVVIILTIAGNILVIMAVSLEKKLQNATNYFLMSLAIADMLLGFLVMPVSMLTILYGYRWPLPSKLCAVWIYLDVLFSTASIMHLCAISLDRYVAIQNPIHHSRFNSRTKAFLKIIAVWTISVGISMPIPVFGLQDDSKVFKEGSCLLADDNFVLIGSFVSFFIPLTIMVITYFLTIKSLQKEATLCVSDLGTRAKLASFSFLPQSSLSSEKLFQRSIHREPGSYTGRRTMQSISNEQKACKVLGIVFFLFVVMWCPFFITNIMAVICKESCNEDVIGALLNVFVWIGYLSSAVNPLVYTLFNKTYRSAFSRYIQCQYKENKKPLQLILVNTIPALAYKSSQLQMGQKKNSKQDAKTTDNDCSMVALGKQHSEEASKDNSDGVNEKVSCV
How it was run: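 CHO cells loaded with calcium dye in HBSS/20 mM HEPES; FLIPR fluorescence recorded after compound addition (10^−10–10^−5 M) for 2 min to detect agonism, then after 3 nM DOI challenge for 5 min for antagonism. Data log transformed before analysis.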

SMILES	EC50 (human hNET)	IC50 (human 5-HT2A receptor)	inhibition at 1 µM (human hNET)	inhibition at 1 µM (human 5-HT2A receptor)
CN1CCN(C[C@@H](O)[C@H](c2ccccc2)n2ccc3cc(OCc4ccccc4)ccc32)CC1 [Example 91, (1S,2R)-1-[5-(benzyloxy)-1H-indol-1-yl]-3-(4-methylpiperazin-1-yl)-1-phenylpropan-2-ol hydrochloride]	–	–	22%	29%
CNC[C@@H](O)[C@H](c1ccccc1)n1ccc2cc(C#Cc3ccccc3)ccc21 [Example 93, (1S,2R)-3-(methylamino)-1-phenyl-1-[5-(phenylethynyl)-1H-indol-1-yl]propan-2-ol hydrochloride]	287 nM	–	–	36%
NC[C@@H](O)[C@H](c1ccccc1)N1C(=O)C2(CCCCC2)c2ccc(F)cc21 [Example 95, 1′-[(1S,2R)-3-amino-2-hydroxy-1-phenylpropyl]-6′-fluorospiro[cyclohexane-1,3′-indol]-2′(1′H)-one hydrochloride]	–	–	7%	44%
CC(C)NC[C@@H](O)[C@H](c1ccccc1)N1C(=O)C2(CCCCC2)c2ccc(F)cc21 [Example 97, 6′-fluoro-1′-[(1S,2R)-2-hydroxy-3-(isopropylamino)-1-phenylpropyl]spiro[cyclohexane-1,3′-indol]-2′(1′H)-one hydrochloride]	–	–	0%	44%
NC[C@@H](O)[C@H](c1ccccc1)N1C(=O)C2(CCCCC2)c2cc(F)ccc21 [Example 99, 1′-[(1S,2R)-3-amino-2-hydroxy-1-phenylpropyl]-5′-fluorospiro[cyclohexane-1,3′-indol]-2′(1′H)-one hydrochloride]	–	–	11%	7%
CCNC[C@@H](O)[C@H](c1ccccc1)N1C(=O)C2(CCCCC2)c2cc(F)ccc21 [Example 100, 1′-[(1S,2R)-3-(ethylamino)-2-hydroxy-1-phenylpropyl]-5′-fluorospiro[cyclohexane-1,3′-indol]-2′(1′H)-one hydrochloride]	–	378 nM	31%	–
CC(C)NC[C@@H](O)[C@H](c1ccccc1)N1C(=O)C2(CCCCC2)c2cc(F)ccc21 [Example 101, 5′-fluoro-1′-[(1S,2R)-2-hydroxy-3-(isopropylamino)-1-phenylpropyl]spiro[cyclohexane-1,3′-indol]-2′(1′H)-one hydrochloride]	–	–	0%	22%
O=C1N([C@@H](c2ccccc2)[C@H](O)CN2CCOCC2)c2ccc(F)cc2C12CCCCC2 [Example 104, 5′-fluoro-1′-[(1S,2R)-2-hydroxy-3-morpholin-4-yl-1-phenylpropyl]spiro[cyclohexane-1,3′-indol]-2′(1′H)-one hydrochloride]	–	–	13%	22%
CNC[C@@H](O)[C@H](c1ccccc1)N1C(=O)C2(CCCCC2)c2cc(OC)ccc21 [Example 105, 1′-[(1S,2R)-2-hydroxy-3-(methylamino)-1-phenylpropyl]-5′-methoxyspiro[cyclohexane-1,3′-indol]-2′(1′H)-one hydrochloride]	81 nM	–	–	37%
CNC[C@@H](O)[C@H](c1ccccc1)N1C(=O)C2(CCCCC2)c2ccc(C#N)cc21 [Example 108, 1′-[(1S,2R)-2-hydroxy-3-(methylamino)-1-phenylpropyl]-2′-oxo-1′,2′-dihydrospiro[cyclohexane-1,3′-indole]-6′-carbonitrile hydrochloride]	1260 nM	–	–	11%

The next lines start with results.

EC50 (human hNET)	IC50 (human 5-HT2A receptor)	SMILES	inhibition at 1 µM (human hNET)	inhibition at 1 µM (human 5-HT2A receptor)
86 nM	636 nM	CNC[C@@H](O)[C@H](c1ccccc1)n1ccc2cc(CCc3ccccc3)ccc21 [Example 94, (1S,2R)-3-(methylamino)-1-phenyl-1-[5-(2-phenylethyl)-1H-indol-1-yl]propan-2-ol hydrochloride]	–	–
–	462 nM	CCNC[C@@H](O)[C@H](c1ccccc1)N1C(=O)C2(CCCCC2)c2ccc(F)cc21 [Example 96, 1′-[(1S,2R)-3-(ethylamino)-2-hydroxy-1-phenylpropyl]-6′-fluorospiro[cyclohexane-1,3′-indol]-2′(1′H)-one hydrochloride]	48%	–
–	672 nM	CCCNC[C@@H](O)[C@H](c1ccccc1)N1C(=O)C2(CCCCC2)c2ccc(F)cc21 [Example 98, 6′-fluoro-1′-[(1S,2R)-2-hydroxy-1-phenyl-3-(propylamino)propyl]spiro[cyclohexane-1,3′-indol]-2′(1′H)-one hydrochloride]	0%	–
–	895 nM	CCCNC[C@@H](O)[C@H](c1ccccc1)N1C(=O)C2(CCCCC2)c2cc(F)ccc21 [Example 102, 5′-fluoro-1′-[(1S,2R)-2-hydroxy-1-phenyl-3-(propylamino)propyl]spiro[cyclohexane-1,3′-indol]-2′(1′H)-one hydrochloride]	0%	–
–	77 nM	CN(C)C[C@@H](O)[C@H](c1ccccc1)N1C(=O)C2(CCCCC2)c2cc(F)ccc21 [Example 103, 1′-[(1S,2R)-3-(dimethylamino)-2-hydroxy-1-phenylpropyl]-5′-fluorospiro[cyclohexane-1,3′-indol]-2′(1′H)-one hydrochloride]	19%	–
908 nM	615 nM	CNC[C@@H](O)[C@H](c1ccccc1)N1C(=O)C2(CCCCC2)c2ccc(OC)cc21 [Example 106, 1′-[(1S,2R)-2-hydroxy-3-(methylamino)-1-phenylpropyl]-6′-methoxyspiro[cyclohexane-1,3′-indol]-2′(1′H)-one hydrochloride]	–	–
349 nM	168 nM	CNC[C@@H](O)[C@H](c1ccccc1)N1C(=O)C2(CCCCC2)c2cc(C#N)ccc21 [Example 107, 1′-[(1S,2R)-2-hydroxy-3-(methylamino)-1-phenylpropyl]-2′-oxo-1′,2′-dihydrospiro[cyclohexane-1,3′-indole]-5′-carbonitrile hydrochloride]	–	–
107 nM	1480 nM	CNC[C@@H](O)[C@H](c1ccccc1)N1C(=O)C2(CCCCC2)c2c1ccc(F)c2F [Example 109, 4′,5′-difluoro-1′-[(1S,2R)-2-hydroxy-3-(methylamino)-1-phenylpropyl]spiro[cyclohexane-1,3′-indol]-2′(1′H)-one hydrochloride]	–	–
